Reference: PMC3412176 (Journal of biological inorganic chemistry : JBIC : a …, 2012)

Target: T1, S. oneidensis cytochrome c nitrite reductase (ccNiR, NrfA) (Shewanella oneidensis, UniProt Q8EAC7)
T1 sequence (Q8EAC7 28-467): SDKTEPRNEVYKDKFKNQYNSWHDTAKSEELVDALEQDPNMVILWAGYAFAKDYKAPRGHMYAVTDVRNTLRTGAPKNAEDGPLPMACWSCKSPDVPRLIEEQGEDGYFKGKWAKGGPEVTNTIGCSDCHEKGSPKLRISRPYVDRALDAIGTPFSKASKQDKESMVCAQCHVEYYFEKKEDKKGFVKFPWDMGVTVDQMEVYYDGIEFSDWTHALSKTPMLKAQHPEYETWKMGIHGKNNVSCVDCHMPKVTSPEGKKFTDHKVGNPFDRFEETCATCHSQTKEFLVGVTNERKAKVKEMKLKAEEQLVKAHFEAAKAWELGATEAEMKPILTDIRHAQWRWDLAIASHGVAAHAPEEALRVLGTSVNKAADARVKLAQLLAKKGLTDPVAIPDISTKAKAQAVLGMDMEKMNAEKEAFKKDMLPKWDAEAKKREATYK
Format: biochemical

Ki: ~600 µM
SMILES: O=S(O)O [sulfite]
